Series [1] is described as follows: Conversion of prodrugs into p-GSH in liver homogenate. Conditions: liver homogenate with proteinase inhibitors; FIGS. 1 and 2. Format: in vitro ADME. The method, then: The conversion of the p-GSH prodrugs, compounds 4 & 9 into p-GSH were studied in liver homogenate. Liver and brain homogenate were selected because they not only are considered as metabolic organs for p-GSH but also the target organs of p-GSH. The homogenate was prepared from fresh liver tissue and proteinase inhibitors were added in order to prevent degradation of metabolic enzymes.

The next series can be described thus: Stability in plasma. Format: in vitro ADME. Conditions: for Stability in plasma compared with p-GSH: summary in words of Table 1. As to the method:
(§1) Compounds 4 and 9 were tested in for stability in the gastrointestinal tract and plasma.

The nature of series [2]: Stability in GI tract (gastric and intestinal phase). As to conditions: for Stability in the GI tract compared with p-GSH: summary in words of Table 1. The format is in vitro ADME. The method, then: as §1
Series [3] has as its system acetaminophen (ACP) toxicity. As to conditions: cited from earlier work.
The next series addresses T1, glyoxalase-I (Homo sapiens, UniProt Q04760).
T1 sequence (Q04760 2-184 limits assumed): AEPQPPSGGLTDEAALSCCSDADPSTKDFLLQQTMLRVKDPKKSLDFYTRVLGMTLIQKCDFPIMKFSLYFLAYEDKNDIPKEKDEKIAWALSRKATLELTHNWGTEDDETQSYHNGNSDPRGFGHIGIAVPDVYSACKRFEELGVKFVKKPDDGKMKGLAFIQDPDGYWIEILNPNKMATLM
Conditions: previous studies (More, Vince 2012); cited from earlier work.

Series [4] concerns amyloid-β induced neurotoxicity. Conditions: certain earlier data; cited from earlier work.
The test system of series [5] is transgenic Alzheimer's mice. Conditions: certain earlier data; cited from earlier work.

For the compound `CC(=O)SC[C@H](NC(=O)NC[C@H](N)C(=O)O)C(=O)NCC(=O)O` [Compound 4], the “Conversion into parent compound p-GSH” value in series [1] is recorded as “can be converted into parent compound p-GSH”. Also, in “Stability in plasma”, the Stability in plasma was 5.8 h and the “Stability in plasma compared with p-GSH” value is on record as “more stable in plasma”. Besides, in series [2], the “Stability in GI tract, Gastric Phase” value was >24 h; the “Stability in GI tract, Intestinal Phase” value was 5.1 h; the “Stability in the GI tract compared with p-GSH” value is “more stable than p-GSH in the GI tract”.
On to `CCOC(=O)SC[C@H](NC(=O)NC[C@H](N)C(=O)O)C(=O)NCC(=O)O` [Compound 9], for which, in series [1], the “Conversion into parent compound p-GSH” value is given as “can be converted into parent compound p-GSH”. In addition, in “Stability in plasma”, the Stability in plasma came to 80 h and the “Stability in plasma compared with p-GSH” value is “more stable in plasma”. Also, in series [2], the “Stability in GI tract, Gastric Phase” value was >24 h; the “Stability in GI tract, Intestinal Phase” value turned out to be 7.7 h; the “Stability in the GI tract compared with p-GSH” value is given as “more stable than p-GSH in the GI tract”.
With `N[C@@H](CNC(=O)N[C@@H](CS)C(=O)NCC(=O)O)C(=O)O` [p-GSH], the “Rescue agent against acetaminophen (ACP) toxicity” value in series [3] was “useful as rescue agent”. In addition, the “Substrate property for glyoxalase-I” value on glyoxalase-I is reported as “stable substrate”. Besides, the “Effect on amyloid-β induced neurotoxicity” value in series [4] was “reduced the amyloid-β induced neurotoxicity”. For the same compound, in series [5], the “Effect on cognitive decline” value is “prevented cognitive decline”. This compound registered a Stability in plasma in “Stability in plasma” of 0.0433 h. Besides, in series [2], the “Stability in GI tract, Gastric Phase” value is listed as >24 h and the “Stability in GI tract, Intestinal Phase” value came to 1.3 h < 4 h.

Source of the values: patent US11479579B2, “Therapeutic compounds and methods” (Regents of the University of Minnesota, priority 2018, dated 2022).
